Patent EP4245293B1, “USE OF SUGAR AMINES AS COMPLEXING AGENTS” (Clariant International Ltd, priority 2022, dated 2023)

What was measured:
Type in all cases: physicochemical
[1] = Complexing ability test vs. EDTA (color changes and precipitate formation); conditions: for Result: Fe^3+ solution 0,2 mmol/L, observed color and precipitate; for chelating strength for Iron^3+ ions relative to EDTA: both EDTA and chelant present, judged from the colored complex formed
Experimental: The relative complexing ability of the chelant is evaluated vs. EDTA by observing color changes and precipitate formation.
To Fe^3+ and Cu^2+ solutions (c = 0,2 mmol/L), solutions of chelants are added: • Na4EDTA at 0,4 mmol/L • Na4EDTA at 2 mmol/L • Only chelant (Dimethylglucamine or Piroctone Olamine) at 0,6 mmol/L • Chelant (Dimethylglucamine or Piroctone Olamine) at 0,6 mmol/L + Na4EDTA 0,4 mmol/L • Chelant (Dimethylglucamine or Piroctone Olamine) at 0,6 mmol/L + Na4EDTA 2 mmol/L

[2] = Confirmation of complex formation with single chelants, Fe3+ ions
[3] = Confirmation of complex formation with single chelants, Cu2+ ions
[4] = Complexing ability test of Dimethylglucamine vs. Aminomethylpropanol; conditions: for Result: Cu^2+ solution 0,2 mmol/L, each chelant at 0.6 mmol/L, observed color and precipitate
Experimental: The relative complexing ability of the chelant Dimethylglucamine is evaluated vs. Aminomethylpropanol by observing color changes and precipitate formation. In particular Aminomethylpropanol was chosen since in the previous test c) it was shown that Aminomethylpropanol makes complex with Copper that differs in color of Copper complex with Dimethylglucamine. Therefore, it is possible to evaluate the strength of complexation of Aminomethylpropanol and Dimethylglucamine when both chelants are present in solution of Copper^2+ ions by observing the color of solution. To Cu^2+ solutions (c = 0,2 mmol/L), solutions of chelants are added: • Aminomethylpropanol at 0,6 mmol/L • Dimethylglucamine at 0,6 mmol/L • Aminomethylpropanol at 0,6 mmol/L + Dimethylglucamine 0,6 mmol/L

[5] = Fe^3+ solution 0,2 mmol/L with single chelant
[6] = Fe^3+ solution 0,2 mmol/L, single chelant added at c=0,2 mmol/L, observed color and precipitate
[7] = Cu^2+ solution 0,2 mmol/L with single chelant
[8] = Cu^2+ solution 0,2 mmol/L, single chelant added at c=0,2 mmol/L, observed color and precipitate

| Structure (SMILES) | Result ([1]; only chelant at 0,6 mmol/L) | chelating strength for Iron^3+ ions relative to EDTA [1] | complexes formed with Iron^3+ ions [2] | pH [2, 5] | Result [2, 6] | complexes formed with Copper^2+ ions [3] | pH [3, 7] | Result [3, 8] | Result [4] | complex formed in presence of Aminomethylpropanol and Cu^2+ ions ([4]; both chelants present at 0,6 mmol/L) | Result ([1]; EDTA 0.4 mmol/L, alone or with chelant at 0,6 mmol/L) | Result ([1]; EDTA 2 mmol/L, alone or with chelant at 0,6 mmol/L) | Result [2] | pH [2] | Result [3] | pH [3] |
| --- | --- | --- | --- | --- | --- | --- | --- | --- | --- | --- | --- | --- | --- | --- | --- | --- |
| CN(C)C[C@H](O)[C@@H](O)[C@H](O)[C@H](O)CO [Dimethylglucamine, N,N-dimethylglucamine] | Clear solution with distinct orange precipitate | stronger chelating agent than EDTA | distinct orange complexes | 3.4 | Clear solution with distinct orange precipitate | blue complexes | 6.5 | Clear, light blue solution | Clear light blue solution | distinct blue complex of Dimethylglucamine is formed instead of brown complex of Aminomethylpropanol and Cu^2+ ions |  |  |  |  |  |  |
| O=C(O)CN(CCN(CC(=O)O)CC(=O)O)CC(=O)O [EDTA, ethylenediaminetetraacetic acid] |  |  |  |  |  |  |  |  |  |  | Clear, very slightly yellowish solution | Clear, very slightly yellowish solution | Clear, very slightly yellowish solution | 10.6 | Clear, light blue solution | 10.0 |
| CC(C)(N)CO [Aminomethylpropanol] |  |  |  | 4.0 | Clear solution with distinct orange precipitate |  | 9.2 | Clear solution with distinct brown precipitate | Clear solution with distinct brown precipitate |  |  |  |  |  |  |  |
| Cc1cc(CC(C)CC(C)(C)C)n(O)c(=O)c1.NCCO (stereo not shown) [Piroctone Olamine] | Turbid yellowish solution with distinct orange precipitate | stronger than EDTA |  | 3.8 | Turbid solution with distinct orange precipitate |  | 8.3 | Turbid, light blue solution |  |  |  |  |  |  |  |  |
| NCC(=O)O [Glycine] |  |  |  | 3.3 | Clear solution with distinct orange precipitate |  | 4.6 | Clear, slightly bluish solution |  |  |  |  |  |  |  |  |
